Results as given in patent publication US20260373283A1, “LIPID NANOPARTICLES AND METHODS OF USING THE SAME FOR TREATING CELL PROLIFERATIVE DISEASES AND DISORDERS” (Northwestern University, priority 2022, published 2026).

Tests used:
[1] = system: CT-2A glioma; assay: survival with Stupp treatment (RT plus TMZ); assay type: in vivo, mouse; conditions: RT+TMZ (3 Gy×3; TMZ 50 mg/kg×3 i.p.); control 27.5 days
Description: FIG. 15. B-LNP treatment improves antitumor effects of RT plus concomitant adjuvant TMZ in GBM-bearing mice. Survival curves of C57 mice received intracranial implantation of 5×10^4 CT-2A cells and two administrations of saline, B-LNP/diABZI (0.25 mg/kg diABZI), or a combination of free diABZI and therapeutic antibodies (αPD-L1+αCD47) (referred to as cocktails) through implanted cannula. Selected groups of mice also received RT (3 Gy×3) plus TMZ through intraperitoneal injection (50 mg/kg×3). n=7-10 mice per group. **, p<0.01; determined by Log-rank test for groups with proportional hazards and Renyi statistics for groups with crossing hazards. p values were adjusted by Bonferroni correction.
In vivo B-LNP/diABZI combined with Stupp treatment. C57BL/6 mice with intracranially implanted CT-2A (5×10^4 cells per mouse) were randomly grouped and received a daily dose of brain-focused irradiation at 3 Gy and TMZ at 50 mg per kg intraperitoneally for three consecutive days starting on the seventh day after tumor cell implantation. Certain groups of mice also received B-LNP/diABZI (0.25 mg diABZI per kg) or a combination of free diABZI and therapeutic antibodies (αPD-L1+αCD47) on the ninth and thirteenth day after tumor implantation through intracranially implanted cannula. All mice were followed for their survival following outlined endpoint protocols.

[2] = system: TAMCs; assay: ARG1, CD206, CD86 expression in TAMCs by flow cytometry; assay type: cell-based, mouse; conditions: 24 h post-treatment
Description: (§1) BMDM, bone marrow-derived macrophage. […] FIG. 10E, Cytotoxicity of diABZI to T cells was tested by Annexin V staining using flow cytometry 48 h after treatment with diABZI at 200 nM.
(§2) In vitro analysis of diABZI effects on TAMC and T cell. In vitro generated TAMCs (1×10^6 cells/well) in 6-well plate were treated with diABZI at 200 nM. After 6 h of treatment, cells were washed and collected for RNA isolation using the RNEasy Plus Mini Kit (Qiagen). Total RNA was quantified by Nanodrop (Thermo Scientific), and cDNA was synthesized using the iScript cDNA synthesis kit (Bio-Rad). Gene expression was analyzed by quantitative PCR analysis (Bio-Rad). Alternatively, flow cytometric analysis was performed 24 h after treatment. To determine the cytotoxicity of diABZI to T cells, T cells were isolated using mouse T cell isolation kit (STEMCELL Technologies) and seeded at 2×10^5 cells/well in 96-well U bottom plates with the addition of Dynabeads mouse T cell activator CD3/CD28 (Fisher) and IL-2 (PeproTech) at 50 U/ml. Cells were treated with diABZI at 200 nM for 48 h and collected for annexin V assay (BioLegend) using flow cytometry.

[3] = system: CD8+ T cells in CT-2A tumors; assay: T cell infiltration to brain tumors after systemic delivery; assay type: in vivo, mouse; conditions: i.v. 2.5 mg/kg diABZI with fractionated RT
Description: FIG. 16. Systemic nanoparticle delivery of diABZI enhances T cell infiltration to brain tumors. C57 mice received intracranial implantation of 7.5×10^4 CT-2A cells, RT (3 Gy×3), and two administrations of saline, free diABZI, or P-LNP/diABZI (2.5 mg/kg diABZI) through intravenous injections. Freshly dissected brains were analyzed by flow cytometry for T cell infiltration. Data are represented as mean±SEM; n=5. *, p<0.05; **, p<0.01; determined by determined by one-way ANOVA with Tukey's multiple comparisons test.
In vivo nanoparticle treatment through systemic delivery. C57BL/6 mice with intracranially implanted CT-2A (7.5×10^4 cells per mouse) were randomly grouped and treated with saline or P-LNP/diABZI (2.5 mg diABZI per kg) through intravenous administration on the ninth, fourteenth, and nineteenth day after tumor implantation. Selected groups of mice also received brain-focused radiotherapy for three consecutive days starting on the sixth day post-tumor implantation. […] Tumor burden was analyzed by hematoxylin and eosin (H&E) staining. Therapeutic effects of P-LNP/diABZI was similarly evaluated in mice implanted with PF8 cells (7.5×10^4 cells per mouse) and received RT and intravenous administrations of saline or P-LNP/diABZI (2.5 mg diABZI per kg) on the eighth and thirteenth day after tumor implantation.

[4] = system: T cells; assay: cytotoxicity to T cells by Annexin V staining; assay type: cell-based, mouse; conditions: 200 nM, 48 h
Description: as §1, §2

[5] = system: CT-2A glioma; assay: survival, CT-2A-bearing mice, systemic delivery with RT; assay type: in vivo, mouse; conditions: i.v. 2.5 mg/kg diABZI with fractionated RT
Description: FIGS. 6A-6F. Systemic nanoparticle delivery of diABZI potentiates anti-glioma effects of RT. FIGS. 6A-6E, C57 mice received intracranial implantation of 7.5×10^4 CT-2A cells and three administrations of saline, free diABZI, or P-LNP/diABZI (2.5 mg/kg diABZI) through intravenous injections. Selected groups of mice received RT (3 Gy×3) as monotherapy or combination therapy. FIG. 6A, Survival curves of CT-2A-bearing C57 mice received different treatments. n=6-7 mice per group. Survival curves were compared using Log-rank test for those with proportional hazards and Renyi statistics for those with crossing hazards with p values adjusted by Bonferroni correction. […] Tumor burden in control and LTS mice were evaluated through H&E staining. FIG. 6C, 100 d post-rechallenge, freshly dissected brains from LTS, age-matched tumor-bearing mice, and age-matched non-tumor control mice were analyzed by flow cytometry for immune composition and CD8^+ T cell phenotypes. Data are represented as mean±SEM; n=5. *, p<0.05; **, p<0.01; determined by Student's t-test. […] FIG. 6D, Histology of the brains was evaluated by H. E. staining. […] FIG. 6E, Freshly dissected brains were analyzed by flow cytometry for immune composition, TAMC, and CD8^+ T cell phenotypes. Data are represented as mean±SEM; n=5. **, p<0.01; ***, p<0.001; ****, p<0.0001; determined by Student's t-test. […]

[6] = system: TAMCs; assay: pro-inflammatory gene expression in TAMCs by qPCR; assay type: cell-based, mouse; conditions: diABZI 200 nM, 6 h
Description: as §2

For `Cn1nnc2c(C(N)=O)ncn2c1=O` [TMZ, temozolomide], the median survival [1] was 36 days.

In the case of `CCn1nc(C)cc1C(=O)Nc1nc2cc(C(N)=O)cc(OC)c2n1C/C=C/Cn1c(NC(=O)c2cc(C)nn2CC)nc2cc(C(N)=O)cc(OCCCN3CCOCC3)c21` [diABZI], the “ARG1 and CD206 in TAMCs” value [2] is reported as “reduced levels of immunosuppressive factors ARG1 and CD206”, the “CD86 in TAMCs” value [2] is reported as “higher levels of activation factor CD86” and the “CD8+ T cell tumor infiltration” value [3] is reported as “not free drugs, led to a dramatically enhanced CD8^+ T cell tumor infiltration”. The “cytotoxicity to T cells” value [4] was “causes cytotoxicity to T cells”, the “animal survival in CT-2A glioma model” value [5] was “not free drugs, led to a dramatically enhanced CD8^+ T cell tumor infiltration (FIG. 16) and animal survival” and the “expression of pro-inflammatory genes in TAMCs (type I IFNs, CCL5, CXCL10)” value [6] was “dramatically increased expression of pro-inflammatory genes in TAMCs”.
